Measured values taken from PMC6761534 (Antimicrobial Agents and Chemotherapy, 2019).
Converted amounts (≈) assume the structure as drawn.

What was measured:
[1] = biological target: M. smegmatis F-ATP synthase (Mycolicibacterium smegmatis, UniProt A0R1Z9+A0R205); test: biochemical; design: species or system Mycobacterium smegmatis
[2] = system: M. smegmatis WT; test: microbe, parasite or virus in culture; assay type: cell-based, Mycobacterium smegmatis; conditions: Mycolicibacterium smegmatis; for MIC50: 24 h, read-out: MIC50 ± SD, M. smegmatis WT
[3] = system: M. bovis BCG; test: microbe, parasite or virus in culture; assay type: cell-based; conditions: Mycobacterium tuberculosis variant bovis BCG, 120 h, read-out: Growth inhibition MIC90
[4] = system: M. tuberculosis H37Rv; test: microbe, parasite or virus in culture; assay type: cell-based; conditions: Mycobacterium tuberculosis, 168 h, read-out: M. tuberculosis H37Rv MIC90
[5] = biological target: mycobacterial F-ATP synthase (Mycobacterium bovis, UniProt A1KI93+A1KI99); test: biochemical; design: species or system Mycobacterium bovis BCG
[6] = system: M. bovis BCG; test: microbe, parasite or virus in culture; assay type: cell-based; conditions: Mycobacterium tuberculosis variant bovis BCG, 24 h, read-out: IC50 ATP depletion (intrabacterial ATP)
[7] = system: M. smegmatis ε subunit overexpresser strain; test: microbe, parasite or virus in culture; assay type: cell-based; conditions: Mycolicibacterium smegmatis, 24 h, 1 day, read-out: MIC50 ± SD, ε overexpresser
[8] = system: mycobacterial F-ATP synthase (ATPase activity); test: Continuous ATP hydrolysis assay with M. smegmatis inverted membrane vesicles; assay type: biochemical, Mycobacterium smegmatis

Chain of mycobacterial F-ATP synthase (A1KI93 whole entry, looked up): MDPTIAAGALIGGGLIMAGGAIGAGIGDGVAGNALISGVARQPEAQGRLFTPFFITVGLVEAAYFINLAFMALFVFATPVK
Chain of mycobacterial F-ATP synthase (A1KI99 whole entry, looked up): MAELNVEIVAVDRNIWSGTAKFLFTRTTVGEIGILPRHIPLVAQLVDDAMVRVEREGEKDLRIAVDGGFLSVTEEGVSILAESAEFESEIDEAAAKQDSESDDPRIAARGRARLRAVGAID

| Compound | IC50 [1] | MIC90 [2] | MIC50 [2] | MIC90 [3] | MIC90 [4] | IC50 [5] | IC50 [6] | MIC50 [7] | Inhibition of ATPase activity (in words) ([8]; BDQ-like) | Inhibition of ATPase activity ([8]; 100 μM) | Inhibition of ATPase activity (in words) ([8]; 250 μM) | Inhibition of ATPase activity ([8]; 250 μM) |
| --- | --- | --- | --- | --- | --- | --- | --- | --- | --- | --- | --- | --- |
| COc1cc([C@](O)(CCN(C)C)[C@@H](c2cc3cc(Br)ccc3nc2OC)c2cccc3c2OCCO3)cc(OC)n1 [compound 5316] | 0.011 nM | 4.6 nM (≈ 2.87 ng/mL) | 0.6 ± 0.03 nM (≈ 0.375 ng/mL) | 3.6 nM (≈ 2.25 ng/mL) | 70 nM (≈ 43.7 ng/mL) | 0.047 nM | 0.34 nM | 1.68 ± 0.02 nM (≈ 1.05 ng/mL) | strong | – | – | – |
| COc1nc2ccc(Br)cc2cc1[C@@H](c1ccccc1)[C@@](O)(CCN(C)C)c1cccc2ccccc12 [BDQ, Bedaquiline, reference compound] | 0.2 nM | 100 nM (≈ 55.6 ng/mL) | 12 ± 0.1 nM (≈ 6.67 ng/mL) | 70 nM (≈ 38.9 ng/mL) | 400 nM (≈ 222 ng/mL) | 5.3 nM | 9.16 nM | 24 ± 0.1 nM (≈ 13.3 ng/mL) | – | 78% | almost completely | – |
| COc1cc([C@](O)(CCN(C)C)[C@H](c2cc(OC(C)C)cnc2OC)c2cc3cc(Br)ccc3nc2OC)cc(OC)n1 [compound 5366] | 0.0164 nM | 5.5 nM (≈ 3.61 ng/mL) | 2.1 ± 0.06 nM (≈ 1.38 ng/mL) | 3.4 nM (≈ 2.23 ng/mL) | 30 nM (≈ 19.7 ng/mL) | 0.2 nM | 0.32 nM | 14.3 ± 0.07 nM (≈ 9.37 ng/mL) | – | 36% | – | 40% |
| COc1cc([C@](O)(CCN(C)C)[C@@H](c2cc3cc(Br)ccc3nc2OC)c2cc(OC)nc(OC)c2OC)cc(OC)n1 [TBAJ-876] | 0.0059 nM | 6.3 nM (≈ 4.14 ng/mL) | 1.1 ± 0.05 nM (≈ 0.723 ng/mL) | 7.2 nM (≈ 4.73 ng/mL) | 125 nM (≈ 82.2 ng/mL) | 0.031 nM | 0.89 nM | 2.75 ± 0.02 nM (≈ 1.81 ng/mL) | strong | – | – | – |
| COc1cc([C@](O)(CCN(C)C)[C@@H](c2cc3cc(Br)ccc3nc2OC)c2ccnc(OC)c2OC)cc(OC)n1 [compound 5307] | 0.0087 nM | 3.5 nM (≈ 2.2 ng/mL) | 0.8 ± 0.05 nM (≈ 0.502 ng/mL) | 3.6 nM (≈ 2.26 ng/mL) | 70 nM (≈ 43.9 ng/mL) | 0.091 nM | 0.48 nM | 8 ± 0.1 nM (≈ 5.02 ng/mL) | strong | – | – | – |
